What is called IC50 is the concentration needed to halve the response being measured. In general, melting point refers to the temperature, or range, at which the solid turns liquid.

≈ marks a conversion by molar mass, not a printed value. Entries after “also recorded” stand apart in the source; their conditions may differ. Where two headings read alike, the source gives them in different places.

Data set [1] relates to A375 human melanoma xenograft. As to the kind of experiment: A375 human melanoma xenograft model of nu/nu BALB/c nude mice. The class given is in vivo, mouse. The following applies: 25 mg/kg daily intra-peritoneal, twenty one days, tumor volume, p=0.04322. As to the method: To further substantiate the anti-melanoma efficacy of the Compound 1, this compound was tested for its anti-melanoma efficacy in A375 human melanoma xenograft model of nu/nu BALB/c nude mice. The animals of 6-8 weeks age (body weight 18-22 g) were used in this study. Animals study protocols were approved by Institutional Ethics Committee (IAEC). All the studies were performed in compliance with the Committee for the Purpose of Control and Supervision of Experiments on Animals (CPCSEA) guidelines and OECD guidelines. Animals were allowed free access to sterile standard rodent diet and provided with charcoal filtered and UV exposed water ad libitum. The animals were housed in a sterile room and were located individually in ventilated cages. The room was maintained at a controlled temperature (24-26° C.), humidity (45-70%), and 12 h/12 h of light/dark cycle.
To induce the melanoma tumor, sub-confluent A375 human melanoma cells were harvested by brief trypsinization and 1×10^6 cells were injected subcutaneously in 0.2 ml phosphate-buffered saline. Drug treatment was started after development of palpable tumors (6-7 days after implantation of the cells). At this point the tumor take rate was 100%. […] After twenty one days of treatment, the animals were sacrificed by CO2 inhalation and tumors growth was measured by the following formula (Friedman H S et al., Mol Cancer Ther 2002; 1:943-948). […]
A general note: A xenograft is tissue or cells of one species grown in another, often human tumour cells in immunodeficient mice.

Data set [2] concerns Human umbilical vein endothelial cells (HUVEC). The data set can be described thus: Endothelial cell migration assay. The class given is cell-based. Conditions: 5 and 10 μg/ml, 18 h. As to the method:
The methodology of endothelial cell migration assay was essentially the same as described earlier with some modifications (Sengupta, K et al., Mol. Cancer. Res. 2004; 2: 150-158.). FALCON™ Cell Culture inserts (Becton Dickinson, USA) with 8 μm-pores in their PET membrane was coated with 0.1 mg/ml of collagen. Human umbilical vein endothelial cells (HUVEC) were added to the cell culture inserts (Becton Dickinson) at a density of 5×10^4 cells/insert. Cells were allowed to migrate through the insert for 18 h in presence of different concentrations of either DTIC or Compound 1. The control culture containing migration assembly received only 0.1% DMSO. […] The membranes of the inserts were then mounted on glass slides. Cells migrated through the membrane pores were counted in 20 random fields under Nikon Eclipse TS 100 microscope at 20× objective.

The test system of data set [3] is HS.531.sk normal human skin epithelial cells. Type of data set: cell-based. The following applies: 3 days. As to the method: (§1) MTT [3-(4,5-dimethylthiazol-2-yl)-2,5-diphenyltetrazolium bromide] incorporation based cell proliferation assay was performed using standard procedure. The cytotoxic efficacies of the various selenopheno triazene compounds (compounds 1 to 16) was evaluated in both human malignant melanoma A375 cells and mouse malignant melanoma B16 F0 cells by MTT cell proliferation assay kit (Roche Applied Sciences, Germany). The assay was carried out according to the instruction provided by the vendor. Briefly, equal numbers of cells was plated in 96-well flat-bottomed plates and were incubated with both DTIC and the test compounds (compounds 1 to 16) at various concentrations for a period of three days. Vehicle control culture wells received only a maximum of 0.5% DMSO. Thereafter, 0.5 mg/ml of MTT reagent was added to each well and the microplate was incubated further for 4 h at 37° C. in presence of 5% CO2. Finally, the cells were solubilized by adding solubilizing solution and allowed to incubate at 37° C. overnight. After complete solubilization of the formazan crystals, the absorbance was read at 540 nm in a microplate reader (BioRad, USA). The results (mean OD±SD) obtained from quadruplicate wells were used in calculation to determine the inhibition of cell proliferation (50% of inhibitory concentration, IC50) of the test compounds (compounds 1 to 16) (Table 1).
Next, to check whether the Compound 1 can selectively kill the melanoma cells without or minimally affecting the normal cells, we assessed the comparative efficacy of the Compound 1 and DTIC on cell growth inhibition of HS.531.sk normal human skin epithelial cells. The growth inhibitory effect of the test compound and DTIC was assessed by MTT proliferation assay as described earlier (Example 17). The comparative efficacies of Compound 1 and DTIC in inhibiting the normal skin epithelial cell growth are depicted in FIG. 2.

Data set [4] deals with B16 F0 melanoma xenograft. As to the kind of experiment: B16 F0 melanoma xenograft model of C57B6J mice. Type of data set: in vivo, mouse. The following applies: fourteen days, tumor weight. Here is the method:
In vivo efficacy of compound 1 against melanoma growth was evaluated in B 16 F0 melanoma xenograft model of C57B6J mice. C57B6J mice of 6 weeks age (body weight 18-22 g) were purchased from National Institute of Nutrition (NIN), Hyderabad (India). Animals study protocols were approved by Institutional Ethics Committee (IAEC). All the studies were performed in compliance with the Committee for the Purpose of Control and Supervision of Experiments on Animals (CPCSEA) guidelines and OECD guidelines. Animals were allowed free access to standard feed and provided charcoal filtered and UV exposed water ad libitum. The animals were maintained at a controlled temperature (24-26° C.), humidity (45-70%), and 12 h/12 h of light/dark cycle.
To induce the melanoma tumor formation, sub-confluent B16F0 cells were harvested by brief trypsinization and 1×10^6 cells were injected subcutaneously in 0.2 ml phosphate-buffered saline. Drug treatment was started after development of palpable tumors (3-5 days after implantation of the cells). Drugs were prepared in phosphate-buffered saline (10% DMSO, v/v) and either 75 mg/kg of DTIC or 25 mg/kg of compound 1 was administered daily through intra-peritoneal route. Vehicle treated control animals received only 10% DMSO in phosphate buffered saline. After fourteen days of treatment, the animals were sacrificed by CO2 inhalation and tumors were excised and weighed.

A further data set deals with HT29 colon cancer cells. As to the kind of experiment: MTT based cell proliferation assay, HT29. The following applies: Homo sapiens, HT-29, read-out: Anti-tumor growth potential (IC50) in HT29. Here is the method:
as §1, with “Finally, the cells were solubilized by adding solubilizing solution and allowed to incubate at 37° C. overnight.” left out, “The results (mean OD±SD) obtained from quadruplicate wells were used in calculation to determine the inhibition of cell proliferation (50% of inhibitory concentration, IC50) of the test compounds (compounds 1 to 16) (Table 1).” left out
Anti-tumor growth potential of Compound 1 and DTIC were evaluated in various human tumor cells such as A549 lung tumor cells, DU145 prostate tumor cells, HT29 colon cancer cells and MCF-7 (ER^+) breast tumor cells in vitro, by using MTT based cell proliferation assay as described earlier (example 17). […]

The conditions of data set [5]: cited from earlier work.
The next data set relates to human plasma protein. The following applies: at therapeutic concentrations; cited from earlier work.
Where [6] appears, read: patient with renal and hepatic dysfunctions.

As to `Cc1[se]c(C(N)=O)cc1/N=N/N(C)C` [Compound 1, 4-[(dimethylamino)diazenyl]-5-methylselenophene-2-carboxamide], the melting point was 170 to 172 °C. Further, the “Inhibition of melanoma tumor growth, A375 human melanoma xenograft model of nude mice” value in data set [1] turned out to be 46.52%. For the same compound, the “Migration of human endothelial cells (HUVEC)” value in data set [2] was “significant inhibition of migration; also recorded: inhibited endothelial cell migration”. The “Growth inhibition of HS.531.sk normal human skin epithelial cells” value (shortened to “Growth inhibition”) in data set [3] (25 μg/ml) is 2.33%. The “Growth inhibition” value in data set [3] (50 μg/ml) is 23.83%. Also, the “Inhibition in tumor growth, mouse melanoma xenograft model of C57B6J mice” value in data set [4] (25 mg/kg daily intra-peritoneal) was determined as 31.2%. Also, the IC50 in the data set on HT29 colon cancer cells came out at 13.3 µg/mL (≈ 51.3 µM).
`CN(C)N=Nc1[nH]cnc1C(N)=O` [DTIC, 5-(3,3-dimethyl-1-trizeno)-imidazole-4-carboxamide, reference compound]: the “Initial half life of disappearance from plasma” value is 19 min in data set [5] (biphasic disappearance) and 55 min in data set [5] (setting [6]). In addition, the “Average cumulative excretion of unchanged drug in the urine” value in data set [5] (in six hours) is 40 % of the injected dose. For the same compound, the “Terminal half life of disappearance from plasma” value in data set [5] (setting [6]) was 432 min. The “Growth inhibition” value in data set [3] (25 μg/ml) amounted to 34.58%; in data set [3] (50 μg/ml) it was 43.46%. Also, the “Binding to human plasma protein” value in the data set with human plasma protein was “not appreciably bound”. In data set [4] (75 mg/kg daily intra-peritoneal), the “Inhibition in tumor growth, mouse melanoma xenograft model of C57B6J mice” value is listed as 17%. In the data set on HT29 colon cancer cells, the IC50 worked out at 141 µg/mL (≈ 774 µM).

The values above are taken from patent publication US8143237B2, “Anti-cancer drugs, and uses relating for malignant melanoma and other cancers” (Kasina Laila Innova Pharmaceuticals Private Limited, priority 2009, dated 2012).
